From US20250332173A1, “COMPOUNDS AND METHODS FOR MODULATING NUCLEIC ACID SPLICING” (REMIX THERAPEUTICS INC., priority 2021, published 2025)
Like-named read-outs stand apart in the source and are kept apart here.

What was measured:
HTT mRNA = assay: RT-qPCR splicing assay, HTT canonical junction (CJ) and alternative junction (AJ) mRNA; format: cell-based, human; details: Homo sapiens; for AC50: increase in HTT alternative junction (AJ) mRNA, read-out: HTT AJ AC50
Method in brief: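 Splicing switches were read by TaqMan RT-qPCR on lysates, quantifying exon-exon junctions of the canonical and alternative-exon isoforms. Lysates came from K562 (GAPDH/GUSB reference) or A673 (PPIA reference) cells exposed 24 h to compound in 11 threefold steps from 10 uM, with DMSO ≤0.25%.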

MYB = assay: HiBiT protein abundance assay, MYB HiBiT K562 cell line; format: cell-based, human; details: HiBiT K562 cell line, 24 hours, top dose 10 μM; read-out: Effect on protein abundance, MYB (IC50 category)
Method in brief: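 Tagged-protein abundance measured by split-NanoBiT luminescence after lysis, following 24 h compound exposure (37° C; 10 μM top, 3-fold, 10 points; DMSO ≤0.25%) of HiBiT knock-in K562 cells. Percent response vs DMSO and unmodified-cell controls; 4-parameter logistic interpolation at 50% gave IC50.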

[1] = test system: K562 (human chronic myelogenous leukemia) cells; assay: Cell Titer Glo 2.0 cell viability assay; format: cell-based; details: Homo sapiens, K562, 72 h, K562 cells, 72 hours, Cell Titer Glo 2.0; read-out: K562 GI50
[2] = decrease in HTT canonical junction (CJ) mRNA, RT-qPCR, read-out: HTT CJ IC50
[3] = Table 5 panel, canonical junction qPCR, compound concentration having 50% response in CJ decrease, read-out: HTT IC50 (decrease in CJ mRNA levels)

Row | IC50 (HTT mRNA; [2]) [nM] | IC50 (HTT mRNA; [3]) [nM] | IC50 (MYB) [nM] | GI50 [1] [nM] | Structure (SMILES) | AC50 (HTT mRNA; RT-qPCR) [nM]
1 | 100 to 1000 | 100 to 1000 | 100 to 1000 | 100 to 1000 | Cc1cn2cc(-c3cc(F)c4c(=O)n([C@H]5CCNC[C@@H]5F)cnc4c3)cc(F)c2n1 (relative stereo) [Compound 341, 5-fluoro-7-(8-fluoro-2-methylimidazo[1,2-a]pyridin-6-yl)-3-(trans-3-fluoropiperidin-4-yl)quinazolin-4(3H)-one] | 100 to 1000
2 | 100 to 1000 | 100 to 1000 | < 100 | 100 to 1000 | Cc1cn2cc(-c3cc(F)c4c(=O)n([C@H]5CCN[C@@H](C)C5)cnc4c3)cc(F)c2n1 (relative stereo) [Compound 343, cis-5-fluoro-7-(8-fluoro-2-methylimidazo[1,2-a]pyridin-6-yl)-3-(2-methylpiperidin-4-yl)quinazolin-4(3H)-one] | 100 to 1000
3 | < 100 | < 100 | < 100 | < 100 | Cc1cn2nc(-c3cc(F)c4c(=O)n([C@H]5CCNC6(CC6)C5)cnc4c3)cc(C)c2n1 (single isomer, unassigned) [Compound 357] | < 100
4 | > 10000 | > 10000 | > 10000 | 1000 to 10000 | CN1CCN(c2ccc3c(=O)n(-c4ccc5nn(C)cc5c4)cnc3c2)CC1 [Compound 152] | > 10000
5 | > 10000 | > 10000 | > 10000 |  | Cn1cc2cc(-n3cnc4cc(N5CCNCC5)ccc4c3=O)ccc2n1 [Compound 153] | > 10000
6 | 1000 to 10000 | 1000 to 10000 | 1000 to 10000 |  | Cc1cc(-c2ccc3c(=O)n(C4CCN(C)CC4)cnc3c2)cc2cn(C)nc12 [Compound 156] | 1000 to 10000
7 | > 10000 | > 10000 | 1000 to 10000 |  | Cc1cc(-c2ccc3c(=O)n(C4CC(C)(C)NC(C)(C)C4)cnc3c2)cc2cn(C)nc12 [Compound 157] | > 10000
8 | < 100 | < 100 | 100 to 1000 | 100 to 1000 | CCN1CCC(n2ncc3cc(-c4cc(C)c5nc(C)cn5n4)ccc3c2=O)CC1 [Compound 266] | < 100
9 | 100 to 1000 | 1000 to 10000 | 100 to 1000 | 1000 to 10000 | Cc1cn2nc(-c3ccc4c(c3)CCN(C3CCNC(C)(C)C3)C4=O)cc(C)c2n1 (stereo not shown) [Compound 267] | 1000 to 10000
10 | 1000 to 10000 | 1000 to 10000 | 100 to 1000 | 1000 to 10000 | Cc1cn2nc(-c3ccc4c(c3)CCN(C3CCN(C)CC3)C4=O)cc(C)c2n1 [Compound 268] | 1000 to 10000
11 | > 10000 | > 10000 | 1000 to 10000 | > 10000 | Cc1cn2nc(-c3ccc4c(c3)CCN(C3CCNC3)C4=O)cc(C)c2n1 (stereo not shown) [Compound 269] | > 10000
12 | 1000 to 10000 | 1000 to 10000 | 100 to 1000 | 1000 to 10000 | CCN1CCC(N2CCc3cc(-c4cc(C)c5nc(C)cn5n4)ccc3C2=O)CC1 [Compound 270] | 1000 to 10000
13 | 1000 to 10000 | 1000 to 10000 | 1000 to 10000 | 1000 to 10000 | Cc1cn2nc(-c3ccc4c(=O)n(C5CCN(C)C5)ncc4c3)cc(C)c2n1 (stereo not shown) [Compound 271] | 1000 to 10000
14 | 100 to 1000 | < 100 | 100 to 1000 | 100 to 1000 | Cc1cn2nc(-c3ccc4c(=O)n([C@@H]5CCN[C@H](C)C5)ncc4c3)cc(C)c2n1 [Compound 272] | < 100
15 | < 100 | < 100 | < 100 | 100 to 1000 | Cc1cn2nc(-c3ccc4c(=O)n(C5CCNC6(CC6)C5)ncc4c3)cc(C)c2n1 (stereo not shown) [Compound 274] | < 100
16 | < 100 | < 100 | < 100 | < 100 | Cc1cn2cc(-c3ccc4c(=O)n(C5CCNCC5)ccc4c3)cc(F)c2n1 [Compound 276] | < 100
17 | 100 to 1000 | 100 to 1000 | 100 to 1000 | 1000 to 10000 | Cc1cn2nc(-c3ccc4c(=O)n([C@@H]5CCN(C)[C@H](C)C5)ncc4c3)cc(C)c2n1 [Compound 277] | 100 to 1000
18 | < 100 | < 100 | < 100 | 100 to 1000 | Cc1cn2nc(-c3ccc4c(=O)n([C@H]5CCN(C)[C@H](C)C5)ncc4c3)cc(C)c2n1 [Compound 278] | < 100

Row | IC50 (HTT mRNA; [2]) [nM] | IC50 (HTT mRNA; [3]) [nM] | IC50 (MYB) [nM] | GI50 [1] [nM] | Structure (SMILES) | AC50 (HTT mRNA; RT-qPCR) [nM]
19 | 100 to 1000 | 100 to 1000 | 100 to 1000 | 1000 to 10000 | Cc1cn2nc(-c3ccc4c(=O)n(C5CCNC(C)(C)C5)ncc4c3)cc(C)c2n1 (stereo not shown) [Compound 279] | 100 to 1000
20 | 1000 to 10000 | 1000 to 10000 | 100 to 1000 | 1000 to 10000 | Cc1cn2nc(-c3ccc4c(c3)CCN([C@@H]3CCN[C@H](C)C3)C4=O)cc(C)c2n1 [Compound 281] | 1000 to 10000
21 | > 10000 | > 10000 | 1000 to 10000 | > 10000 | Cc1cn2nc(-c3ccc4c(c3)CCN(C3CCN(C)C3)C4=O)cc(C)c2n1 (stereo not shown) [Compound 282] | > 10000
22 | 100 to 1000 | 100 to 1000 | 100 to 1000 | 100 to 1000 | Cc1cn2nc(-c3ccc4c(=O)n(C5CCCNCC5)ncc4c3)cc(C)c2n1 (stereo not shown) [Compound 283] | 100 to 1000
23 | > 10000 | > 10000 | 1000 to 10000 | > 10000 | O=c1c2ccc(-c3cn[nH]c3)cc2ncn1C1CCNCC1 [Compound 284] | > 10000
24 | > 10000 | 1000 to 10000 | 100 to 1000 | 100 to 1000 | Cc1nc2c(F)cc(-c3ccc4c(=O)n(C5CCNCC5)cnc4c3)cc2s1 [Compound 285] | 1000 to 10000
25 | 1000 to 10000 | 1000 to 10000 | 100 to 1000 | 100 to 1000 | Cc1cn2cc(-c3ccc4c(=O)n(C5CCNCC5)cnc4c3)nc2c(C)n1 [Compound 286] | 1000 to 10000
26 | 100 to 1000 | 100 to 1000 | 100 to 1000 | 100 to 1000 | Cc1cn2nc(-c3ccc4c(=O)n(C5CCNCC5)cnc4c3)nc2c(C)n1 [Compound 287, 7-{6,8-dimethyl-[1,2,4]triazolo[1,5-a]pyrazin-2-yl}-3-(piperidin-4-yl)quinazolin-4-one] | 100 to 1000
27 | 1000 to 10000 | 1000 to 10000 | 1000 to 10000 | 1000 to 10000 | Cc1cn2nc(-c3ccc4c(=O)n(C5CCN(C)CC5)cnc4c3)nc2c(C)n1 [Compound 288, 7-{6,8-dimethyl-[1,2,4]triazolo[1,5-a]pyrazin-2-yl}1-3-(1-methylpiperidin-4-yl)quinazolin-4-one] | 1000 to 10000
28 | 100 to 1000 | 100 to 1000 | 100 to 1000 |  | Cc1cn2nc(-c3ccc4c(=O)n(C5CCN(C)CC5)cnc4c3F)cc(C)c2n1 [Compound 290] | 100 to 1000
29 | 100 to 1000 | 100 to 1000 | 100 to 1000 | < 100 | Cc1cn2cc(-c3ccc4c(=O)n(C5CCNCC5)cnc4c3)cc(Cl)c2n1 [Compound 291] | 100 to 1000
30 | 100 to 1000 | 100 to 1000 | 100 to 1000 | 100 to 1000 | Cc1cn2cc(-c3ccc4c(=O)n(C5CCNCC5)cnc4c3)cc(C)c2n1 [Compound 292] | 100 to 1000
31 | 1000 to 10000 | 100 to 1000 | 100 to 1000 | 100 to 1000 | Cc1cn2cc(-c3ccc4c(=O)n([C@@H]5CCN[C@@H](C)C5)cnc4c3)cc(F)c2n1 [Compound 293] | 100 to 1000
32 | 1000 to 10000 | 1000 to 10000 | 100 to 1000 | 100 to 1000 | Cc1cn2cc(-c3ccc4c(=O)n(C5CCN[C@@H](C)C5)cnc4c3)cc(F)c2n1 (stereo partly shown) [Compound 294] | 1000 to 10000
33 | 1000 to 10000 | 1000 to 10000 | 1000 to 10000 | 100 to 1000 | Cc1cn2cc(-c3ccc4c(=O)n([C@@H]5CCN[C@H](C)C5)cnc4c3)cc(F)c2n1 [Compound 295] | 1000 to 10000
34 | 100 to 1000 | 100 to 1000 | 100 to 1000 | 100 to 1000 | Cc1cn2cc(-c3ccc4c(=O)n([C@H]5CCN[C@H](C)C5)cnc4c3)cc(F)c2n1 [Compound 296] | 100 to 1000
35 | 1000 to 10000 | 1000 to 10000 | 100 to 1000 | 1000 to 10000 | Cc1cn2cc(-c3ccc4c(=O)n(C5CCNCC5)cnc4c3)ncc2n1 [Compound 297] | 1000 to 10000

Row | Structure (SMILES) | IC50 (HTT mRNA; [2]) [nM] | IC50 (HTT mRNA; [3]) [nM] | IC50 (MYB) [nM] | GI50 [1] [nM] | AC50 (HTT mRNA; RT-qPCR) [nM]
36 | Cn1cc2cc(-n3cnc4cc(C5=CCNCC5)ccc4c3=O)ccc2n1 [Compound 158] | > 10000 | > 10000 | 1000 to 10000 |  | > 10000
37 | CN1CC=C(c2ccc3c(=O)n(-c4ccc5nn(C)cc5c4)cnc3c2)CC1 [Compound 159] | > 10000 | > 10000 | > 10000 |  | > 10000
38 | Cc1cn2nc(-c3ccc4c(=O)n([C@@H]5C[C@H]6CC[C@@H](C5)N6)ncc4c3)cc(C)c2n1 [Compound 280] | 100 to 1000 | 100 to 1000 | 100 to 1000 | 1000 to 10000 | 100 to 1000
